Reference: PubChem BioAssay (NCI)
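How tested: cells in 96-well plates exposed to compound for 48 hours at five concentrations. At the TGI there is no net growth.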

Assays:
Assay in all cases: DTP human tumour cell line panel, 48 h
[1] = tested on: NCI-H460 lung
[2] = tested on: SK-MEL-28 melanoma
[3] = tested on: SNB-78 CNS
[4] = tested on: HCC-2998 colon
[5] = tested on: SK-OV-3 ovarian
[6] = tested on: SNB-19 CNS
[7] = tested on: ACHN renal
[8] = tested on: SK-MEL-5 melanoma
[9] = tested on: OVCAR-3 ovarian
[10] = tested on: MOLT-4 leukemia
[11] = tested on: LOX IMVI melanoma
[12] = tested on: CAKI-1 renal
[13] = tested on: HOP-92 NSCLC
[14] = tested on: UACC-62 melanoma
[15] = tested on: SF-268 CNS
[16] = tested on: TK-10 renal
[17] = tested on: U251 CNS

Question: Which results are given for CC(=O)NC1=C(NC(C)(C)C)C(=O)c2ccccc2C1=O?
Answer: TGI [1]: 41.1 µM; TGI [2]: 43.1 µM; TGI [3]: 99.1 µM; TGI [4]: > 100 µM; TGI [5]: > 100 µM; TGI [6]: > 100 µM; TGI [7]: > 100 µM; TGI [8]: 32.5 µM; TGI [9]: 33.1 µM; TGI [10]: 26.7 µM; TGI [11]: 30.8 µM; TGI [12]: 30 µM; TGI [13]: 34.6 µM; TGI [14]: 27.3 µM; TGI [15]: 55.6 µM; TGI [16]: 33.5 µM; TGI [17]: > 100 µM
